What was measured:
[1] = biological target: T1, PAF receptor (specific receptor binding site on human platelet plasma membranes) (Homo sapiens, UniProt P25105); test: Inhibition of 3H-PAF binding to human platelet plasma membrane (receptor binding, filtration); conditions: 0.5 nM 3H-PAF, 0° C., 1 hour incubation
T1 construct: from tissue; host or cells: human platelets (platelet concentrates from a hospital blood bank), lysed plasma membranes
Experimental: (§1) Compounds of general formula I inhibit PAF-induced functions in both the cellular and tissue levels by changing the PAF binding to its specific receptor site. The ability of compounds of general formula I to inhibit the binding of PAF to its specific receptor binding site on human platelet plasma membranes was measured according to Pharmacological Example 1. The ability of compounds of general formula I to reverse the hypotension caused by an infusion of PAF in rats was measured according to Pharmacology Example 2.
The inhibition of ^3 H-PAF binding to human platelet plasma membrane by compounds of general formula I was determined by isotopic labelling and filtration techniques. Platelet concentrates were obtained from a hospital blood bank. These platelet concentrates (500-2500 ml.) were centrifuged at 800 rpm for 10 minutes in a SORVALL RC3B centrifuge to remove the red blood cells present. (The word SORVALL is a trade mark.) The supernatant was subsequently centrifuged at 3,000 rpm in a SORVALL RC3B centrifuge to pellet the platelets present. […]
The assay was conducted by preparing a series of Tris-buffered solutions of the selected antagonist of predetermined concentrations. […] Each washed residue was dried under vacuum on a sampling manifold and placed into vials containing 20 ml of OPTIPHASE MP scintillation fluid and the radioactivity counted in a liquid scintillation counter. […]

[2] = test system: PAF-induced hypotension in the rat; test: Reversal of PAF-induced hypotension in anaesthetised rats; format: in vivo, rat (male Sprague-Dawley); conditions: iv, i.v. bolus during PAF infusion 100 ng/kg/min i.v., mean blood pressure fall of 50 mmHg, read-out: ED50 (dose to cause a 50% reversal of the hypotensive PAF response)
Experimental: as §1
Male Sprague-Dawley rats (300-350 gms) were anaesthetised with a mixture of sodium pentobarbitone, 22.5 mg.kg^-1 and thiopental 62.5 mg.kg^-1. Through a midline incision in the neck, the trachea was cannulated and the animals breathed spontaneously. A carotid artery was cannulated for the measurement of blood pressure and this signal was used to trigger a rate meter to measure heart rate. Both jugular veins were cannulated: one for the infusion of PAF and the other for the bolus administration of test compounds.
PAF, 100 ng.kg^-1. min^-1 was infused i.v. until a sustained fall in mean blood pressure of 50 mmHg was achieved. […] The peak of this reversal was measured and the dose to cause a 50% reversal of the hypotensive PAF response (ED50) calculated by straight line interpolation and the results are presented in Table 2. Also presented in Table 2 is the result for a comparative example (N-cyclohexyl-N-methyl 4-(lH-imidazo[4,5-c]pyridin-1-ylmethyl)benzamide. This compound (a PAF antagonist described in EP-A-02606130) is not within the scope of the invention.

T1 sequence (P25105 whole entry): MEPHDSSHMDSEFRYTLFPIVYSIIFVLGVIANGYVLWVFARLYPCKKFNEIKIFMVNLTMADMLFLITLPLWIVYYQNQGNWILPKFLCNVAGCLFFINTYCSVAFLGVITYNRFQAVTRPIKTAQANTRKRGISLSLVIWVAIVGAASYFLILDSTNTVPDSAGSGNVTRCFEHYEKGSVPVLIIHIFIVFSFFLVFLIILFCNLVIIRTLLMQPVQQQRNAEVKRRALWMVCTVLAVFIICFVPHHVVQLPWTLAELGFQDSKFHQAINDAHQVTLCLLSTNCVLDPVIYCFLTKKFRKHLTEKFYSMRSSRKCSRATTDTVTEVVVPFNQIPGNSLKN

In the case of `CN(C(=O)c1ccc(Cn2cnc3cnccc32)cc1)C1CCCCC1` [Comparative Example, N-cyclohexyl-N-methyl 4-(lH-imidazo[4,5-c]pyridin-1-ylmethyl)benzamide, reference compound], the IC50 [1] is reported as 10 µM and the ED50 [2] is reported as 150 µg/kg.

With `CCOC(=O)[C@H](CC(C)C)N(C)C(=O)c1ccc(Cn2c(C)nc3cnccc32)cc1` [2 (B), N-Methyl-N-L-leucinyl ethyl ester 4-(1H-2-methylimidazo[4,5-c]pyridylmethyl)benzamide] the IC50 [1] was 0.01 µM and the ED50 [2] was 5 µg/kg.

Molecule `CCOC[C@H](CC(C)C)N(C)C(=O)c1ccc(Cn2c(C)nc3cnccc32)cc1` [3 (B), N-Methyl-N-L-leucinol ethyl ether 4-(lH-2-methylimidazo[4,5-c]pyridylmethyl)benzamide] has an ED50 [2] of 6 µg/kg.
